From ChEMBL document CHEMBL1201862, “PubChem BioAssay data set” (2004)
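Growth conditions: 96-well plates. Treatment: test compound, 48 hours, 5 concentrations. Analysis: linear interpolation between bracketing concentrations; unreached endpoints set to highest concentration. Abbreviation: GI50, concentration required for 50% inhibition of growth.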 Active and inactive are the calls of the source. Rule as the data show it: active = GI50 up to about 1.1 µM and inactive = higher.

Columns and labels:
Assay in all cases: NCI-60 cell line screen, 48 h
786-0 = tested on: 786-0
A498 = tested on: A498
A549 = tested on: A549
ACHN = tested on: ACHN
BT-549 = tested on: BT-549
CAKI-1 = tested on: CAKI-1
CCRF-CEM = tested on: CCRF-CEM
DU-145 = tested on: DU-145
HCC 2998 = tested on: HCC 2998
HCT-116 = tested on: HCT-116
HCT-15 = tested on: HCT-15
HL-60 = tested on: HL-60
HOP-62 = tested on: HOP-62
HT-29 = tested on: HT-29
IGROV-1 = tested on: IGROV-1
K562 = tested on: K562
LOX IMVI = tested on: LOX IMVI
M14 = tested on: M14
MCF7 = tested on: MCF7
MDA-MB-231 = tested on: MDA-MB-231
MDA-MB-435 = tested on: MDA-MB-435
MDA-N = tested on: MDA-N
MOLT-4 = tested on: MOLT-4
Malme-3M = tested on: Malme-3M
NCI-H226 = tested on: NCI-H226
NCI-H23 = tested on: NCI-H23
NCI-H460 = tested on: NCI-H460
OVCAR-3 = tested on: OVCAR-3
OVCAR-4 = tested on: OVCAR-4
OVCAR-5 = tested on: OVCAR-5
OVCAR-8 = tested on: OVCAR-8
PC-3 = tested on: PC-3
RPMI-8226 = tested on: RPMI-8226
SF-268 = tested on: SF-268
SK-MEL-28 = tested on: SK-MEL-28
SK-MEL-2 = tested on: SK-MEL-2
SK-MEL-5 = tested on: SK-MEL-5
SN12C = tested on: SN12C
SNB-19 = tested on: SNB-19
SNB-75 = tested on: SNB-75
SR = tested on: SR
SW-620 = tested on: SW-620
T47D = tested on: T47D
TK-10 = tested on: TK-10
U-251 = tested on: U-251
UACC-257 = tested on: UACC-257
UACC-62 = tested on: UACC-62
UO-31 = tested on: UO-31
COLO 205 = tested on: COLO 205
EKVX = tested on: EKVX
HOP-92 = tested on: HOP-92
Hs-578T = tested on: Hs-578T
KM12 = tested on: KM12
NCI-H522 = tested on: NCI-H522
NCI/ADR-RES = tested on: NCI/ADR-RES
RXF 393 = tested on: RXF 393
SF-295 = tested on: SF-295
SF-539 = tested on: SF-539
SK-OV-3 = tested on: SK-OV-3

Measured: GI50

COC(=O)C(CCCCNC(=O)CNC(=O)OCc1ccccc1)NC(=O)C(CCCCNC(=O)CNC(=O)OCc1ccccc1)NC(=O)OCc1ccccc1 (configuration not stated)
inactive: 786-0 25 µM | A498 > 100 µM | A549 > 100 µM | ACHN > 100 µM | BT-549 20.7 µM | CAKI-1 > 100 µM | CCRF-CEM 42.8 µM | DU-145 98.4 µM | HCC 2998 52.2 µM | HCT-116 84.7 µM | HL-60 83.2 µM | HOP-62 > 100 µM | HT-29 > 100 µM | IGROV-1 > 10 µM | K562 > 100 µM | LOX IMVI 87.9 µM | M14 > 100 µM | MDA-MB-231 > 100 µM | MDA-MB-435 19.8 µM | MDA-N 51.6 µM | MOLT-4 33.4 µM | Malme-3M 46.2 µM | NCI-H226 > 100 µM | NCI-H23 > 100 µM | NCI-H460 > 100 µM | OVCAR-3 53.3 µM | OVCAR-4 29.2 µM | OVCAR-5 > 100 µM | OVCAR-8 57.3 µM | PC-3 96.2 µM | RPMI-8226 20.4 µM | SF-268 78 µM | SK-MEL-28 53.8 µM | SK-MEL-2 19 µM | SK-MEL-5 69.5 µM | SN12C > 100 µM | SNB-19 93.3 µM | SNB-75 62.7 µM | SR 41.8 µM | SW-620 > 100 µM | T47D 20.3 µM | TK-10 > 100 µM | U-251 54 µM | UACC-257 > 100 µM | UACC-62 40 µM | UO-31 > 100 µM
> 100 µM: HCT-15
active: MCF7 0.0805 µM

O=S(=O)(/N=c1\[nH]c(-c2cc(O)c(O)c(O)c2)cs1)c1ccc(Cl)cc1Cl
17.2 µM: HCT-15
inactive: 786-0 19.7 µM | A498 53.1 µM | A549 31.9 µM | ACHN 14.6 µM | CAKI-1 17.3 µM | CCRF-CEM 19.9 µM | COLO 205 22 µM | DU-145 20.3 µM | EKVX 18.1 µM | HCT-116 19 µM | HL-60 41.8 µM | HOP-62 17.9 µM | HOP-92 41.2 µM | HT-29 22.8 µM | Hs-578T 20.1 µM | IGROV-1 20.8 µM | K562 18.6 µM | KM12 15.2 µM | LOX IMVI 12.8 µM | M14 22.1 µM | MCF7 17.6 µM | MDA-MB-231 21.3 µM | MDA-MB-435 22.2 µM | MDA-N 25.1 µM | MOLT-4 20.7 µM | Malme-3M 21.8 µM | NCI-H226 50.4 µM | NCI-H23 26.5 µM | NCI-H460 18.7 µM | NCI-H522 17.9 µM | NCI/ADR-RES 26.4 µM | OVCAR-3 17.4 µM | OVCAR-4 22.1 µM | OVCAR-5 18.2 µM | PC-3 34.5 µM | RPMI-8226 19.4 µM | RXF 393 25.5 µM | SF-268 20.5 µM | SF-295 17.2 µM | SF-539 27.6 µM | SK-MEL-28 > 100 µM | SK-MEL-2 43.8 µM | SK-MEL-5 17.1 µM | SK-OV-3 72.6 µM | SN12C 18.7 µM | SNB-19 31 µM | SNB-75 25.7 µM | SW-620 18.5 µM | T47D 15.3 µM | TK-10 4.65 µM | U-251 19 µM | UACC-257 16 µM | UACC-62 > 100 µM | UO-31 20.4 µM
active: OVCAR-8 0.034 µM

Oc1cc(O)c2ccc(-c3ccc(O)c(O)c3)[o+]c2c1
> 100 µM: HCT-15
inactive: 786-0 > 100 µM | A498 > 100 µM | A549 > 100 µM | ACHN > 100 µM | BT-549 39.9 µM | CAKI-1 > 100 µM | CCRF-CEM 67.9 µM | EKVX > 100 µM | HCC 2998 > 100 µM | HCT-116 > 100 µM | HL-60 > 100 µM | HOP-62 > 100 µM | HOP-92 > 100 µM | HT-29 > 100 µM | Hs-578T > 100 µM | IGROV-1 > 100 µM | K562 > 100 µM | KM12 > 100 µM | LOX IMVI > 100 µM | M14 > 100 µM | MCF7 > 100 µM | MDA-MB-435 > 100 µM | MDA-N > 100 µM | MOLT-4 > 100 µM | Malme-3M > 100 µM | NCI-H226 > 100 µM | NCI-H23 > 100 µM | NCI-H460 > 100 µM | NCI-H522 > 100 µM | NCI/ADR-RES > 100 µM | OVCAR-3 > 100 µM | OVCAR-4 > 100 µM | OVCAR-5 > 100 µM | OVCAR-8 > 100 µM | PC-3 > 100 µM | RPMI-8226 84.9 µM | RXF 393 63.8 µM | SF-268 > 100 µM | SF-295 > 10 µM | SF-539 > 100 µM | SK-MEL-28 > 100 µM | SK-MEL-2 > 100 µM | SK-OV-3 > 100 µM | SN12C > 100 µM | SNB-19 > 100 µM | SNB-75 > 100 µM | SW-620 > 100 µM | TK-10 > 100 µM | U-251 > 100 µM | UACC-257 > 100 µM | UACC-62 > 100 µM | UO-31 > 100 µM
